The text below walks through data of patent US20260285909A1, “PEPTIDES FOR ANTIMICROBIAL THERAPY” (Karl-Franzens-Universität Graz, priority 2023, published 2026).

In one data set the test system is B. subtilis 168 trpC2. In words: Antimicrobial activity (LC99.9), killing in PBS with plating. Format: cell-based, Bacillus subtilis. The note with it: Gram-positive bacteria, lowest peptide concentration that killed ≥99.9% of bacteria, 37° C. As to the method:
(§1) In the context of the present invention, the test whether a peptide has an antimicrobial activity which is higher than the antimicrobial activity of peptide OP-145 (acetyl-[…]-amide (SEQ ID NO: 50)) may be performed according to any method known in the art, as for instance disclosed in Balouiri et al, 2016. In particular, S. aureus JAR060131, Enterococcus hirae ATCC 10541, Bacillus subitlis 168C trpC2 or Escherichia coli ATCC25992 are cultured to mid-logarithmic phase in tryptic soy broth, brain heart infusion (BHIB), mueller hinton (MHB) or luria broth (LB) and washed once with PBS. […] Thereafter, the number of viable bacteria is determined by plating on diagnostic sensitivity agar. Antimicrobial activity is expressed as the 99.9% killing concentration (LC99.9), i.e., the lowest peptide concentration that killed ≥99.9% of bacteria. […]
(§2) Antimicrobial activity: S. aureus JAR060131, Enterococcus hirae ATCC 10541, Bacillus subitlis 168C trpC2, Escherichia coli ATCC25992 or their variants were cultured to mid-logarithmic phase in tryptic soy broth, brain heart infusion (BHIB), mueller hinton (MHB) or luria broth (LB) and washed once with PBS. […] Thereafter, the number of viable bacteria was determined by plating on diagnostic sensitivity agar. Antimicrobial activity is expressed as the 99.9% killing concentration (LC99.9), i.e., the lowest peptide concentration that killed ≥99.9% of bacteria.

The test system of a further data set is human erythrocytes. Briefly: Hemolysis assay. The data set is classed as cell-based. The method, then:
In the context of the present invention, the test whether a peptide has a hemolytic activity which is lower than the hemolytic activity of peptide OP-145 (acetyl-[…]-amide (SEQ ID NO: 50)) may be performed according to any method known in the art, as for instance disclosed in Avrahami & Shai, 2004. In particular, a 0.5% erythrocyte solution in phosphate-buffered saline is exposed to the respective peptide (e.g. at 1 μM or 10 μM or 20 μM or 50 μM) at 37° C. for 1 h; hemolysis is determined by measuring optical density of the cell supernatants at 415 nm. More specifically, the assay may be performed as follows: Whole venous blood of healthy volunteers is collected in citrate tubes. Erythrocytes are isolated by centrifuging the blood for 10 min at 2,000×g and subsequently washing twice in PBS. […] After 1 h at 37° C. under static conditions, the erythrocyte suspensions are centrifuged and the optical density of the supernatants is determined at 415 nm. The percentage of hemolysis may be calculated relative to a positive control (e.g. 1% Triton X-100).
Hemolysis assay: Whole venous blood of healthy volunteers was collected in citrate tubes. […] After 1 h at 37° C. under static conditions, the erythrocyte suspensions were centrifuged and the optical density of the supernatants was determined at 415 nm. The percentage of hemolysis was calculated relative to the positive control (1% Triton X-100).

The test system of another data set is E. coli ATCC25992. In words: Antimicrobial activity (LC99.9), killing in PBS with plating. Format: cell-based, Escherichia coli. To be noted: Gram-negative bacteria, lowest peptide concentration that killed ≥99.9% of bacteria, 37° C. The method, then:
as §1, §2

Data set [1] concerns Gram-negative and Gram-positive bacteria. Briefly: Antimicrobial activity, overall statement. The data set is classed as cell-based. To be noted: against both Gram-negative and Gram-positive bacteria. As to the method:
(§3) Antimicrobial activity: S. aureus JAR060131, Enterococcus hirae ATCC 10541, Bacillus subitlis 168C trpC2, Escherichia coli ATCC25992 or their variants were cultured to mid-logarithmic phase in tryptic soy broth, brain heart infusion (BHIB), mueller hinton (MHB) or luria broth (LB) and washed once with PBS. Approximately 1×10^6 CFU/ml of PBS were incubated with peptide (final concentrations: 0-102.4 μM) for 0-2 h at 37° C. under shaking conditions. Thereafter, the number of viable bacteria was determined by plating on diagnostic sensitivity agar. Antimicrobial activity is expressed as the 99.9% killing concentration (LC99.9), i.e., the lowest peptide concentration that killed ≥99.9% of bacteria.

The test system of data set [2] is multi-resistant clinical isolates. In words: Bactericidal activity against multi-resistant clinical isolates (FIG. 4). The data set is classed as cell-based. The note with it: 1 h treatment with peptides in presence of PBS. The method, then: Bactericidal activity was tested (for 1 h treatment with peptides) in presence of PBS according to de Breij et al., 2018. Bactericidal activity is expressed as LC99.9%—is the lethal concentration causing death in 99.9% cells. Results are ranges of at least three independent experiments. If no range is given, then LC99.9 values were identical in all experiments.
as §3

Turning to IGKEFKRIVERKWRFLRELVRPLR [SEQ ID NO: 2], the LC99.9% in the data set on B. subtilis 168 trpC2 came out at 3.2 µM; in the data set with E. coli ATCC25992, 6.4 µM. Moreover, the “lysis of human erythrocytes” value in the data set with human erythrocytes was “did not lyse the human erythrocytes”. Also, the “antimicrobial activity compared to OP-145I12K” value in data set [1] was “improved antimicrobial activity”.

Consider IGKKFKRIVRRKKRFLRKLVRPLR [SEQ ID NO: 3], for which the LC99.9% with B. subtilis 168 trpC2 and with E. coli ATCC25992 was 3.2 µM in each case. Also, in the data set with human erythrocytes, the “lysis of human erythrocytes” value was “did not lyse the human erythrocytes”. For the same sequence, the “antimicrobial (bactericidal) activity against multi-resistant clinical isolates” value in data set [2] was “Excellent antimicrobial activity”. Also, the “antimicrobial activity compared to OP-145I12K” value in data set [1] was “improved antimicrobial activity”.
